Laboratory results reported in patent US8815893B2, “Hetarylaminonaphthyridines” (Merck Patent GmbH, priority 2010, dated 2014).

What was measured:
[1] = test system: lung epithelial cell line Mv1Lu; experiment: Cellular assay for TGF-beta receptor I kinase inhibitors: elimination of TGF-beta-mediated growth inhibition (example 13); type: cell-based; conditions: 48 h; Mv1Lu cells, 1 ng/ml TGF-beta, 0.5% FCS, two days, Crystal Violet staining; read-out: TβR activity (example 13)
Procedure: Cellular Assay for Testing TGF-Beta Receptor I Kinase Inhibitors
As an example, the ability of the inhibitors to eliminate TGF-beta-mediated growth inhibition was tested. Cells of the lung epithelial cell line Mv1Lu were sown in a defined cell density in a 96-well microtiter plate and cultivated overnight under standard conditions. Next day, the medium was replaced by medium which comprises 0.5% of FCS and 1 ng/ml of TGF-beta, and the test substances were added in defined concentrations, generally in the form of dilution series with 5 fold steps. The concentration of the solvent DMSO was constant at 0.5%. After a further two days, Crystal Violet staining of the cells was carried out. After extraction of the Crystal Violet from the fixed cells, the absorption was measured spectrophotometrically at 550 nm. It could be used as a quantitative measure of the adherent cells present and thus of the cell proliferation during the culture.

[2] = biological target: T1, GST-ALK5 (Homo sapiens, UniProt P36897); experiment: In-vitro (enzyme) kinase assay, 384-well flashplate (example 14); type: biochemical; conditions: GST-ALK5, GST-SMAD2 substrate, 33P-ATP flashplate, 30° C. 45 min; IC50 classes; read-out: TβR activity (example 14)
T1 sequence (P36897 34-503): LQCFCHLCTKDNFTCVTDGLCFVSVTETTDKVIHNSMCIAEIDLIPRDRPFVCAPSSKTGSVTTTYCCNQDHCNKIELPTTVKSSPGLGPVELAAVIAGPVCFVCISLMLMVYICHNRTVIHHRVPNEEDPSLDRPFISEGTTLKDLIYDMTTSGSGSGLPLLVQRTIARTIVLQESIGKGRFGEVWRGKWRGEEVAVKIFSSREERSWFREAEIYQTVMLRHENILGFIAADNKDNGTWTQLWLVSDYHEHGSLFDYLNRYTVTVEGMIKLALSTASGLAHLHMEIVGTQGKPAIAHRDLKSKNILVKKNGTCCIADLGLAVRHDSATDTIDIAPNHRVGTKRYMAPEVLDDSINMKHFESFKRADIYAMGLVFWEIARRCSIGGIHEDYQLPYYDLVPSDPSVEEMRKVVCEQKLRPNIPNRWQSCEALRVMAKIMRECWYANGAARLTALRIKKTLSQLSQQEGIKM
Procedure: In-Vitro (Enzyme) Assay for Determination of the Efficacy of Inhibitors of the Inhibition of TGF-Beta-Mediated Effects
The kinase assay was carried out as 384-well flashplate assay. 31.2 nM of GST-ALK5, 439 nM of GST-SMAD2 and 3 mM of ATP (with 0.3 μCi of ^33P-ATP/well) were incubated in a total volume of 35 μl (20 mM of HEPES, 10 mM of MgCl2, 5 mM of MnCl2, 1 mM of DTT, 0.1% of BSA, pH 7.4) without or with test substance (5-10 concentrations) at 30° C. for 45 min. The reaction was stopped using 25 μl of 200 mM EDTA solution, filtered with suction at room temperature after 30 min, and the wells were washed with 3 times 100 μl of 0.9% NaCl solution. Radioactivity was measured in the TopCount. The IC50 values were calculated using RS1. Above and below, all temperatures were indicated in ° C.

Structure (SMILES)	IC50 [2] [nM]	IC50 [1] [nM]
CCN1CCN(C(=O)c2cnccc2Nc2cc(-c3cc(Cl)ccc3F)nc3ncccc23)CC1 [compound 132]	1000 to 10000	1000 to 10000
CCN1CCC(Nc2cc(Nc3cc(-c4cc(Cl)ccc4F)nc4ncccc34)ncn2)CC1 [compound 127]	1000 to 10000	1000 to 10000
CC(C)(N)C(=O)Nc1cc(Nc2cc(-c3cc(Cl)ccc3F)nc3ncccc23)ncn1 [compound 136]	100 to 1000	100 to 1000
CC(C)(N)CC(=O)Nc1cc(Nc2cc(-c3cc(F)ccc3F)nc3ncccc23)ncn1 [compound 107]	< 100	< 100
NCCCC(=O)Nc1cc(Nc2cc(-c3cc(Cl)ccc3F)nc3ncccc23)ncn1 [compound 135]	< 100	100 to 1000
CN(C)CCNC(=O)c1cc(Nc2cc(-c3cc(F)ccc3F)nc3ncccc23)ccn1 [compound 119]	1000 to 10000	> 10000
CN1CCC(NC(=O)c2cnccc2Nc2cc(-c3cc(Cl)ccc3F)nc3ncccc23)CC1 [compound 95]	< 100	< 100
CC(C)(C)CC(=O)Nc1cc(Nc2cc(-c3cc(F)ccc3F)nc3ncccc23)ncn1 [compound 105]	< 100	100 to 1000

More lines, main results first:

IC50 [2] [nM]	Structure (SMILES)	IC50 [1] [nM]
< 100	CC(C)C(=O)Nc1cc(Nc2cc(-c3cc(Cl)ccc3F)nc3ncccc23)ncn1 [compound 92]	< 100
100 to 1000	CCOc1ccc(Cl)cc1-c1cc(Nc2ccnc(NC(C)=O)c2)c2cccnc2n1 [compound 79]	100 to 1000
1000 to 10000	COC(=O)c1cc(Nc2cc(-c3cc(F)ccc3F)nc3ncccc23)ccn1 [compound 116]	> 10000
< 100	Fc1ccc(Cl)cc1-c1cc(-n2ncc3cnccc32)c2cccnc2n1 [compound 73]	< 100
< 100	CN(C)CCNC(=O)c1cnccc1Nc1cc(-c2cc(Cl)ccc2F)nc2ncccc12 [compound 72]	< 100
< 100	Fc1ccc(F)c(-c2cc(-n3ccc4cnccc43)c3cccnc3n2)c1 [compound 129]	100 to 1000
< 100	NCC(=O)Nc1cc(Nc2cc(-c3cc(Cl)ccc3F)nc3ncccc23)ncn1 [compound 110]	< 100
100 to 1000	Fc1ccccc1-c1cc(-n2ccc3cncnc32)c2cccnc2n1 [compound 96]	1000 to 10000
100 to 1000	COC(=O)c1nccc2c1ccn2-c1cc(-c2cc(Cl)ccc2F)nc2ncccc12 [compound 108]	1000 to 10000
100 to 1000	CC(C)(C)C(=O)Nc1cc(Nc2cc(-c3cc(Cl)ccc3F)nc3ncccc23)ncn1 [compound 101]	1000 to 10000
